Assay results: patent publication US20190124924A1, “FUNGAL CONTROL OF WHITE MOLD” (DOW AGROSCIENCES LLC, priority 2015, published 2019)

What was measured:
Sclerotinia sclerotiorum [1] = assay: Field trials in oilseed rape, incidence of white mold and yield; format: in vivo; details: single application; for Yield of Oilseed Rape: untreated 4.08; for Percent (%) Incidence of Sclerotinia sclerotiorum at B65-B67 Growth Stage in Oilseed Rape: untreated 55
Sclerotinia sclerotiorum [2] = assay: Inhibition of mycelial growth by fungicides in Petri dishes (growth medium + fungicide); format: cell-based; details: for inhibition at 0.1 ppm / inhibition at 1 ppm / inhibition at 10 ppm / inhibition at 100 ppm: Sclerotinia sclerotiorum, 192 h, read-out: Percent (%) Inhibition of Mycelial Growth of Sclerotinia sclerotiorum
Protocol: Evaluation of Inhibition of Mycelial Growth by Fungicides (Sclerotinia sclerotiorum; Bayer code: […]): The growth inhibition of the fungus (Sclerotinia sclerotiorum) was assessed in Petri dishes containing the growth medium+fungicide at different concentrations. […] The number of sclerotia were counted. A completely randomized design with three replicates was used. Treatments consisted of fungicide compounds including Formula I, fluazinam, thiophanate-methyl, and procymidone.

Sclerotinia sclerotiorum [3] = assay: Inhibition of Sclerotinia sclerotiorum on detached soybean leaves; format: in vivo; details: read-out: Percent (%) Inhibition of Sclerotinia sclerotiorum on Detached Soybean Leaves
Protocol: Evaluation of Inhibition of Sclerotinia sclerotiorum on Detached Soybean Leaves: Detached leaves of soybean were immersed for 3 seconds (s) in fungicide solutions at different concentrations and placed in Petri dishes. […] Symptoms were assessed for percent disease severity. Three leaves per plate with three replicates in a completely randomized design. Treatments consisted of fungicide compounds including Formula I, fluazinam, thiophanate-methyl, and procymidone.

Sclerotinia sclerotiorum [4] = assay: Field trial in dry bean, incidence of white mold; format: in vivo; details: two applications R5 and R6, untreated 12.5
Protocol: A field trial in dry bean was carried out in the state of Sao Paulo, Brazil. Two applications of the fungicides were done at growth stages R5 (first bloom) and R6 (full bloom) by using a carbon dioxide (CO2) backpack sprayer at an application rate of 600 liters per hectare (Uha). […] Treatments consisted of fungicide compounds including Formula I, fluazinam, thiophanate-methyl, and procymidone.

Compound | Yield of Oilseed Rape (Sclerotinia sclerotiorum [1]; 150 g ai/ha) | Percent (%) Incidence of Sclerotinia sclerotiorum at B65-B67 Growth Stage in Oilseed Rape (Sclerotinia sclerotiorum [1]; 150 g ai/ha) | Number of Sclerotinia Formed per Colony (Sclerotinia sclerotiorum [2]; 0.1 ppm) | Number of Sclerotinia Formed per Colony (Sclerotinia sclerotiorum [2]; 1 ppm) | Number of Sclerotinia Formed per Colony (Sclerotinia sclerotiorum [2]; 10 ppm) | Number of Sclerotinia Formed per Colony (Sclerotinia sclerotiorum [2]; 100 ppm) | inhibition at 0.1 ppm (Sclerotinia sclerotiorum [2]; 0.1 ppm, 22° C., 8 days) | inhibition at 1 ppm (Sclerotinia sclerotiorum [2]; 1 ppm, 22° C., 8 days) | inhibition at 10 ppm (Sclerotinia sclerotiorum [2]; 10 ppm, 22° C., 8 days) | inhibition at 100 ppm (Sclerotinia sclerotiorum [2]; 100 ppm, 22° C., 8 days) | inhibition at 0.1 ppm (Sclerotinia sclerotiorum [3]; 0.1 ppm, leaves immersed 3 s) | inhibition at 1 ppm (Sclerotinia sclerotiorum [3]; 1 ppm, leaves immersed 3 s) | inhibition at 10 ppm (Sclerotinia sclerotiorum [3]; 10 ppm, leaves immersed 3 s) | inhibition at 100 ppm (Sclerotinia sclerotiorum [3]; 100 ppm, leaves immersed 3 s) | further results
OC(Cc1ccccc1Cl)(Cn1nc[nH]c1=S)C1(Cl)CC1 (racemic) [Prothioconazole, 2-[(2RS)-2-(1-chlorocyclopropyl)-3-(2-chlorophenyl)-2-hydroxypropyl]-2H-1,2,4-triazole-3(4H)-thione] | 4.4 T/ha | 31% |  |  |  |  |  |  |  |  |  |  |  |  | Yield of Oilseed Rape (Sclerotinia sclerotiorum [1]; 173 g ai/ha): 4.49 T/ha; Percent (%) Incidence of Sclerotinia sclerotiorum at B65-B67 Growth Stage in Oilseed Rape (Sclerotinia sclerotiorum [1]; 173 g ai/ha): 20%
O=C(Nc1ccccc1-c1ccc(Cl)cc1)c1cccnc1Cl [Boscalid, boscalid] |  |  |  |  |  |  |  |  |  |  |  |  |  |  | Yield of Oilseed Rape (Sclerotinia sclerotiorum [1]; 250 g ai/ha): 4.34 T/ha; Percent (%) Incidence of Sclerotinia sclerotiorum at B65-B67 Growth Stage in Oilseed Rape (Sclerotinia sclerotiorum [1]; 250 g ai/ha): 4%
COc1ccnc(C(=O)N[C@H]2COC(=O)[C@H](Cc3ccccc3)[C@@H](OC(=O)C(C)C)[C@H](C)OC2=O)c1OCOC(=O)C(C)C [Compound I, (3S,6S,7R,8R)-8-benzyl-3-(3-((isobutyryloxy)methoxy)-4-methoxypicolinamido)-6-methyl-4,9-dioxo-1,5-dioxonan-7-yl isobutyrate] | 4.23 T/ha | 19% | 3.33 | 2.33 | 1.67 | 1.33 |  |  |  |  |  |  |  |  | inhibition at 0.1 ppm (Sclerotinia sclerotiorum [2]): 28.3%; inhibition at 1 ppm (Sclerotinia sclerotiorum [2]): 72.4%; inhibition at 10 ppm (Sclerotinia sclerotiorum [2]): 80.7%; inhibition at 100 ppm (Sclerotinia sclerotiorum [2]): 91%; inhibition at 0.1 ppm (Sclerotinia sclerotiorum [3]): 8.63%; inhibition at 1 ppm (Sclerotinia sclerotiorum [3]): 66.1%; inhibition at 10 ppm (Sclerotinia sclerotiorum [3]): 92.5%; inhibition at 100 ppm (Sclerotinia sclerotiorum [3]): 100%; Percent (%) Incidence of Sclerotinia sclerotiorum at R7 Growth Stage on Dry Bean (Sclerotinia sclerotiorum [4]; 120 g ai/ha): 3.5%; Percent (%) Incidence of Sclerotinia sclerotiorum at R7 Growth Stage on Dry Bean (Sclerotinia sclerotiorum [4]; 240 g ai/ha): 1%; Yield of Oilseed Rape (Sclerotinia sclerotiorum [1]; 100 g ai/ha): 4.22 T/ha; Percent (%) Incidence of Sclerotinia sclerotiorum at B65-B67 Growth Stage in Oilseed Rape (Sclerotinia sclerotiorum [1]; 100 g ai/ha): 24%; Yield of Oilseed Rape (Sclerotinia sclerotiorum [1]; 130 g ai/ha): 4.29 T/ha; Percent (%) Incidence of Sclerotinia sclerotiorum at B65-B67 Growth Stage in Oilseed Rape (Sclerotinia sclerotiorum [1]; 130 g ai/ha): 24%; Yield of Oilseed Rape (Sclerotinia sclerotiorum [1]; 200 g ai/ha): 4.48 T/ha; Percent (%) Incidence of Sclerotinia sclerotiorum at B65-B67 Growth Stage in Oilseed Rape (Sclerotinia sclerotiorum [1]; 200 g ai/ha): 14%
O=[N+]([O-])c1cc(C(F)(F)F)c(Cl)c([N+](=O)[O-])c1Nc1ncc(C(F)(F)F)cc1Cl [Fluazinam, fluazinam] |  |  | 5.7 | 4.3 | 0 | 0 | 59.7% | 71.6% | 82.6% | 100% | 25.9% | 53.5% | 66.1% | 100% | Percent (%) Incidence of Sclerotinia sclerotiorum at R7 Growth Stage on Dry Bean (Sclerotinia sclerotiorum [4]; 500 g ai/ha): 0.8%
CC12CC1(C)C(=O)N(c1cc(Cl)cc(Cl)c1)C2=O (centres unmarked) [Procymidone, procymidone] |  |  | 18.67 | 16.2 | 1.67 | 0 | 10% | 24.5% | 68.2% | 100% | 19.5% | 59.8% | 85.1% | 100% | 
COC(=O)NC(=S)Nc1ccccc1NC(=S)NC(=O)OC [Thiophanate-Methyl, thiophanate-methyl] |  |  | 19.25 | 17.56 | 0 | 0 | 0% | 32.2% | 78.3% | 100% | 20.7% | 43.1% | 87.4% | 100% | 
